Data from patent US20100305068A1, “COMPOUNDS AND METHODS FOR MODULATING PROTEIN TRAFFICKING” (priority 2006, published 2010).

test system: pdr5 ypt1^ts cells; assay: microbe, parasite or virus in culture; assay type: cell-based, yeast; details: Table 3; 3.13 uM compound; 37° C.; background (0 uM) 0.077
Summary of the method: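 Whole-cell yeast growth-rescue screen: pdr5 ypt1^ts cells (efflux pump inactivated), growth-arrested at 37° C., cultured with compounds at 37° C. Restoration of growth read by optical density.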

Going from `COc1ccc(-c2coc3cc(O)cc(O)c3c2=O)cc1` [BIO- CHANIN A] to `CNC(=O)Oc1ccccc1OC(C)C` [PROPOXUR], the “optical density, 3.13 uM” value rises from 0.112 to 0.194.

In the case of `CC(=O)O[C@@H]1CC2C(C)(C)CCC[C@]2(C)C2CC[C@]3(C)C(=CC(=O)O[C@H]3c3ccoc3)[C@@]21C` (stereo partly drawn) [DEOXO- DEOXY- DIHYDRO- GEDUNIN], the “optical density, 3.13 uM” value is reported as 0.245.

same assay, conditions: Table 3; 12.5 uM compound; 37° C.; background (0 uM) 0.077

Compared with `COc1ccc(-c2coc3cc(O)cc(O)c3c2=O)cc1` [BIO- CHANIN A], `CNC(=O)Oc1ccccc1OC(C)C` [PROPOXUR] is lower in “optical density, 12.5 uM” value: 0.297 for the first, 0.289 for the second.

In the case of `CC(=O)O[C@@H]1CC2C(C)(C)CCC[C@]2(C)C2CC[C@]3(C)C(=CC(=O)O[C@H]3c3ccoc3)[C@@]21C` (stereo partly drawn) [DEOXO- DEOXY- DIHYDRO- GEDUNIN], the “optical density, 12.5 uM” value is reported as 0.479.

same assay, conditions: Table 3; 50 uM compound; 37° C.; background (0 uM) 0.077

First: COc1ccc(-c2coc3cc(O)cc(O)c3c2=O)cc1 [BIO- CHANIN A]
Second: CNC(=O)Oc1ccccc1OC(C)C [PROPOXUR]
The “optical density, 50 uM” value of the first is lower: 0.055 for the first, 0.231 for the second.

In the case of `CC(=O)O[C@@H]1CC2C(C)(C)CCC[C@]2(C)C2CC[C@]3(C)C(=CC(=O)O[C@H]3c3ccoc3)[C@@]21C` (stereo partly drawn) [DEOXO- DEOXY- DIHYDRO- GEDUNIN], the “optical density, 50 uM” value is reported as 0.452.
